Source: US20240108684A1, “DOSING REGIMENS FOR TREATMENT OF FUNGAL INFECTIONS” (priority 2016, published 2024)
Where two headings read alike, the source gives them in different places. *1 amine or outer side, *2 acyl side, *3 side chain or, on linkers, in order; H or OH if unused. Where a SMILES comes first, the peptide text is derived from it. Bridges are numbered along the chain shown (N, C = ends). [ ]: non-standard residue; d: D form. The star is where a group is joined. Orn(4R-OH,5R-OCH2CH2NMe3+) = C[N+](C)(C)CCO[C@@H](N[*:3])[C@H](O)C[C@H](N[*:1])C(=O)[*:2]; pTerphenylCO(4''-OnC5H11) = CCCCCOc1ccc(-c2ccc(-c3ccc(C(=O)*)cc3)cc2)cc1; hTyr(3S-OH,4S-OH) = N[C@H](C(=O)O)[C@H](O)[C@@H](O)c1ccc(O)cc1; Pro(3S-OH,4S-Me) = C[C@H]1CN[C@H](C(=O)O)[C@H]1O; Hyp = O=C(O)[C@@H]1C[C@@H](O)CN1

How the values were obtained:
[1] = system: azole-resistant C. albicans R357 strain; test: MIC and CLSI susceptibility, azole-resistant C. albicans R357; type: cell-based, Candida albicans; conditions: Candida albicans
C. glabrata = test: Mutant prevention concentration (MPC); type: cell-based, Candida glabrata
Source text: As used herein, the term “mutant prevention concentration” or “MPC” refers to the concentration of a drug sufficient to suppress the development of all but very rare spontaneous mutants. The range of drug concentrations between the MIC and MPC represents a mutant selection window wherein de novo mutants are most likely to occur. Therapeutic regimens that maximize the duration of drug concentrations in excess of the MPC thereby minimize the potential for resistance development during the course of therapy.
Selection of resistance strains in vivo predominantly occurs over a range of drug concentrations falling between the MIC and MPC values. Dosing paradigms that result in plasma drug concentrations in excess of the MPC are therefore more desirable and effective in preventing the development of de novo mutants during the course of therapy (see, e.g., Drlica et al., J. Antimicrob. Chemother. 52:11-17, 2003). Currently approved treatment regimens for caspofungin, micafungin, and anidulafungin involve once-daily dosing at levels such that the Cmax is unlikely to be equivalent to or exceed the MPC at any point during treatment.

[2] = Single ascending dose IV study in healthy adult subjects (safety, PK); type: in vivo, human; conditions: for AUC(0-t): read-out: AUC0-168; for concentration at 144 h: read-out: C144
Description: In a first study, CD101 was administered by IV injection to healthy adult subjects. In this study, subjects in 4 cohorts of 8 subjects (6 active, 2 placebo) each were randomized to receive single IV doses of CD101 or placebo (normal saline) infused over 60 (±5) minutes. Dose levels of CD101 assessed follow an ascending single-dose regimen (50, 100, 200, or 400 mg).
Pharmacokinetics were first determined by analyzing plasma and urine samples for concentration of CD101 obtained from subjects who received CD101 in each cohort at various time points after administration of the single dose of the study drug.

Candida albicans = test: Nonclinical studies of Candida albicans infections in mice (PK-PD target); type: in vivo
Description: Monte Carlo simulations were conducted to assess the probability of PK-pharmacodynamic (PD) target attainment using a variety of exploratory dosing regimens. Two dosing regimens were selected for further investigation (Table 5). […] Nonclinical studies of Candida albicans infections in mice have shown that a CD101 fAUC0-168:MIC ratio of 10 has been associated with a 2-log reduction in fungal burden in infected kidneys. This value of 10 was therefore chosen as the PK-PD target of interest for the Monte Carlo simulations.

C. albicans (R357) = test: Disseminated infection model with C. albicans R357, kidney fungal counts; type: in vivo, ICR mice
C. auris isolates = test: Candida auris antifungal susceptibility testing (AFST), CLSI M27-A3; type: cell-based
C. albicans [3] = conditions: Sentry 2014; compared with MIC of 0.5 mg/L; cited from earlier work
[4] = Single dose plasma PK after IP doses; conditions: mouse, 64 mg/kg
C. albicans [5] = test: Neutropenic murine disseminated candidiasis model, PK/PD; conditions: for 1 log kill dose / Static Dose: single IP dose
[6] = Solubility of test articles in vehicle, visual observation; conditions: 10% DMSO/1% Tween 20 in 0.9% NaCl; 0.3, 1 and 3 mg/mL
Description: Amphotericin B and fluconazole were in powder form. Amphotericin B was dissolved in 0.9% NaCl. Fluconazole was dissolved in water (WFI: water for injection).

[7] = human, plasma, 50 mg 1-hour IV infusion
[8] = human, plasma, 100 mg 1-hour IV infusion
[9] = human, plasma, 200 mg 1-hour IV infusion
[10] = human, plasma, 400 mg 1-hour IV infusion
[11] = single IV 50, 100, 200 or 400 mg

CCCCCOc1ccc(-c2ccc(-c3ccc(C(=O)N[C@H]4C[C@@H](O)[C@@H](OCC[N+](C)(C)C)NC(=O)[C@@H]5[C@@H](O)[C@@H](C)CN5C(=O)[C@H]([C@@H](C)O)NC(=O)[C@H]([C@H](O)[C@@H](O)c5ccc(O)cc5)NC(=O)[C@@H]5C[C@@H](O)CN5C(=O)[C@H]([C@@H](C)O)NC4=O)cc3)cc2)cc1 [CD101] ({pTerphenylCO(4''-OnC5H11)}-[Orn(4R-OH,5R-OCH2CH2NMe3+)]T[Hyp][hTyr(3S-OH,4S-OH)]T[Pro(3S-OH,4S-Me)]; lactam 1-C)
MIC [1]: 0.125 mg/L
MPC (C. glabrata): 16 µg/mL
Cmax ([2]; 400 mg 1-hour IV infusion): 22.7 µg/mL
Dose proportionality ([2]; 50-400 mg single IV): AUC and Cmax increased in a dose proportional manner
Fraction of dose excreted in urine ([2]; all dose levels): < 1%
half-life ([2]; human, plasma, intravenous, incorporating data from later collection times, read-out: terminal t1/2): 127 to 146 h
half-life ([2]; human, plasma, intravenous, through the first week of plasma collection, read-out: t1/2 (converted)): > 80 h
Vd ([2]; human, plasma, intravenous, 50-400 mg, read-out: Volume of distribution (Vz and Vss)): 33 to 48 L
clearance ([2]; human, plasma, intravenous, across the CD101 doses 50-400 mg, read-out: Total body clearance): ~4 mL/min
Tmax ([2]; human, plasma, intravenous, after start of 1-hour infusion, all doses): ~1 h
half-life ([2]; human, plasma, iv, 50 mg, 50 mg 1-hour IV infusion, read-out: t1/2 (converted)): 86 h
half-life ([2]; human, plasma, iv, 100 mg, 100 mg 1-hour IV infusion, read-out: t1/2 (converted)): 92 h
half-life ([2]; human, plasma, iv, 200 mg, 200 mg 1-hour IV infusion, read-out: t1/2 (converted)): 91 h
half-life ([2]; human, plasma, iv, 400 mg, 400 mg 1-hour IV infusion, read-out: t1/2 (converted)): 84 h
AUC(0-t) [2, 7]: 145 µg·h/mL
concentration at 144 h [2, 7]: 0.481 µg/mL
Cmax ([2]; human, plasma, 50 mg 1-hour IV infusion, read-out: Cmax): 2.76 µg/mL
AUC(0-t) [2, 8]: 254 µg·h/mL
concentration at 144 h [2, 8]: 0.854 µg/mL
Cmax ([2]; human, plasma, 100 mg 1-hour IV infusion, read-out: Cmax): 4.84 µg/mL
AUC(0-t) [2, 9]: 592 µg·h/mL
concentration at 144 h [2, 9]: 2.01 µg/mL
Cmax ([2]; human, plasma, 200 mg 1-hour IV infusion, read-out: Cmax): 10.9 µg/mL
AUC(0-t) [2, 10]: 1160 µg·h/mL
concentration at 144 h [2, 10]: 3.83 µg/mL
Drug-related AEs from laboratory abnormalities [2, 11]: no drug-related AEs resulting from clinically significant hematology or clinical chemistry laboratory abnormalities at any dose
ECG, vital signs, physical exam [2, 11]: no safety issues related to electrocardiograms (ECGs), vital signs, or physical exam findings
Serious and severe adverse events [2, 11]: no serious adverse events (SAEs), severe adverse events (AEs), or dose-response relationships for overall AEs
Severity and resolution of AEs [2, 11]: majority of AEs were mild, and all AEs completely resolved by the end of the study
Safety and tolerability ([2]; single dose up to 400 mg): safe and well tolerated
fAUC0-168:MIC ratio associated with a 2-log reduction in fungal burden in infected kidneys (Candida albicans): 10
Antimicrobial effect versus vehicle (kidney fungal counts) (C. albicans (R357); 3, 10, and 30 mg/kg IP once, 48 and 72 hr after infection): Significant antimicrobial effects (P<0.05)
Reduction in fungal counts (C. albicans (R357); all CD101 groups (3, 10, 30 mg/kg IP), 48 and 72 hr): two log reduction
Activity in comparison (C. auris isolates; 38 C. auris isolates): activity similar to MICA
Breakthrough at 48 h (C. auris isolates; C. auris strains): not with CD101
Number of resistant C. auris isolates (C. auris isolates; of 38 isolates): 4
MIC90 (C. albicans [3]): 0.06 mg/L
AUC(0-inf) [4]: 93 to 4050 µg·h/mL
Cmax [4]: 2.6 to 77 µg/mL
half-life [4]: 28 to 41 h
1 log kill Ave 24 h AUC/MIC (C. albicans [5]; C. albicans 98-17): 490
Stasis Ave 24 h AUC/MIC (C. albicans [5]; C. albicans 98-17): 274
1 log kill dose (C. albicans [5]; C. albicans 98-17, 7 days): 2.73 mg/kg
Static Dose (C. albicans [5]; C. albicans 98-17, 7 days): 1.34 mg/kg
1 log kill Ave 24 h AUC/MIC (C. albicans [5]; C. albicans 98-210): 1574
Stasis Ave 24 h AUC/MIC (C. albicans [5]; C. albicans 98-210): 868
1 log kill dose (C. albicans [5]; C. albicans 98-210, 7 days): 2.28 mg/kg
Static Dose (C. albicans [5]; C. albicans 98-210, 7 days): 1.06 mg/kg
1 log kill Ave 24 h AUC/MIC (C. albicans [5]; C. albicans 580): 1429
Stasis Ave 24 h AUC/MIC (C. albicans [5]; C. albicans 580): 948
1 log kill dose (C. albicans [5]; C. albicans 580, 7 days): 2.03 mg/kg
Static Dose (C. albicans [5]; C. albicans 580, 7 days): 1.20 mg/kg
1 log kill Ave 24 h AUC/MIC (C. albicans [5]; C. albicans K-1): 6435
Stasis Ave 24 h AUC/MIC (C. albicans [5]; C. albicans K-1): 3426
1 log kill dose (C. albicans [5]; C. albicans K-1, 7 days): 5.26 mg/kg
Static Dose (C. albicans [5]; C. albicans K-1, 7 days): 2.52 mg/kg
Maximal kill (C. albicans [5]; C. albicans and C. glabrata strains, 0.016-64 mg/kg once IP, 7 days): over 2 log10 CFU/kidney
Solubility [6]: S
